In patent US10308660B2, “Compounds and compositions for inhibiting the activity of SHP2” (Novartis AG, priority 2015, dated 2019) one finds IC50 data, which are given here for 61 compounds.

As usually defined, the IC50 is the midpoint of a concentration-inhibition curve. The low end stands for greater potency in that assay, the high end for weaker potency in that assay.

The assay has as its target SHP2 (Homo sapiens (Human), UniProt Q06124). Kind of assay: SHP2 allosteric inhibition assay (DiFMUP prompt fluorescence). It is filed as biochemical. The note with it: 0.5 nM SHP2 activated with 0.5 μM peptide IRS1_pY1172(dPEG8)pY1222; substrate DiFMUP; 25° C.

SHP2, sequence (Q06124 whole entry): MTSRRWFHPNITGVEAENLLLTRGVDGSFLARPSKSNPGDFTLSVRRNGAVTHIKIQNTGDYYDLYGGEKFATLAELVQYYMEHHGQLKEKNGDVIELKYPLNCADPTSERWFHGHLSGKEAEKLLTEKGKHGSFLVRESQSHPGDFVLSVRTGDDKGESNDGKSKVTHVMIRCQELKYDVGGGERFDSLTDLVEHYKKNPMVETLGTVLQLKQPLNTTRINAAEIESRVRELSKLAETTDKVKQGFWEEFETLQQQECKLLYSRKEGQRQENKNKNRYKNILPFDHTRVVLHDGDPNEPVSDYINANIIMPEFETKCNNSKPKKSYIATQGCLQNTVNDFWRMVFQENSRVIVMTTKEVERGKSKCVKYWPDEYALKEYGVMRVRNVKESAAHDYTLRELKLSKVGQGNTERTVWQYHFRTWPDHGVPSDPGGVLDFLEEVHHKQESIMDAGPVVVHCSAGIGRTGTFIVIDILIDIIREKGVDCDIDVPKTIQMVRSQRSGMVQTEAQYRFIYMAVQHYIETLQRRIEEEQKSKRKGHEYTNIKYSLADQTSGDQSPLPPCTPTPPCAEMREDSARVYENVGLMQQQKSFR

Regarding `CC[C@@H]1OCC2(CCN(c3nc(N)c(Sc4ccnc(C)c4Cl)c(=O)n3C)CC2)[C@@H]1N` [Example 86], half-maximal inhibition (IC50) required 22 nM. Compound `CC[C@@H]1OCC2(CCN(c3nc(N)c(Sc4cccnc4C(F)(F)F)c(=O)n3C)CC2)[C@@H]1N` [Example 87] yielded an IC50 of 21 nM. This IC50 and that of the compound before are within 1.5-fold of each other. In turn, `C[C@@H]1OCC2(CCN(c3cc(N)c(Sc4cccnc4C(F)(F)F)c(=O)[nH]3)CC2)[C@@H]1N` [Example 88, 4-amino-6-((3S,4S)-4-amino-3-methyl-2-oxa-8-azaspiro[4.5]decan-8-yl)-3-((2-(trifluoromethyl)pyridin-3-yl)thio)pyridin-2(1H)-one] registered an IC50 of 42 nM. With `CC1(CN)CCN(c2nc(N)c(Sc3cccnc3C(F)(F)F)c(=O)[nH]2)CC1` [Example 90, 6-amino-2-(4-(aminomethyl)-4-methylpiperidin-1-yl)-5-((2-(trifluoromethyl)pyridin-3-yl)thio)pyrimidin-4(3H)-one] the figure was 66 nM; with `N[C@@H]1CCCC12CCN(c1ncc(Sc3cccnc3C(F)(F)F)c(=O)[nH]1)CC2` [Example 92], 92 nM; with `CC1(CN)CCN(c2ncc(Sc3cccc(Cl)c3Cl)c(=O)[nH]2)CC1` [Example 93], 65 nM. Consider `CC1(CN)CCN(c2ncc(Sc3ccccc3Cl)c(=O)[nH]2)CC1` [Example 94], for which the IC50 is 178 nM. In turn, `CCOc1nccc(Sc2cnc(N3CCC4(CC3)CO[C@@H](C)[C@H]4N)[nH]c2=O)c1Cl` [Example 95] showed an IC50 of 23 nM. In turn, `C[C@@H]1OCC2(CCN(c3ncc(Sc4cccc(Cl)c4Cl)c(=O)[nH]3)CC2)[C@@H]1N` [Example 97] came in with an IC50 of 9 nM. Compared with the last compound, the IC50 is about 2.6-fold lower. As to `Cn1c(N2CCC(C)(CN)CC2)ncc(Sc2cccc(Cl)c2Cl)c1=O` [Example 98, 2-(4-(aminomethyl)-4-methylpiperidin-1-yl)-5-((2,3-dichlorophenyl)thio)-3-methylpyrimidin-4(3H)-one], the IC50 was 68 nM. In turn, `Cn1c(N2CCC(C)(CN)CC2)ncc(Sc2ccccc2Cl)c1=O` [Example 99] showed an IC50 of 375 nM. As for `Cn1c(N2CCC(C)(CN)CC2)ncc(Sc2cccnc2C(F)(F)F)c1=O` [Example 100], the IC50 amounted to 631 nM.

As to `Cn1c(N2CCC3(CC2)COC[C@H]3N)ncc(Sc2cccc(Cl)c2Cl)c1=O` [Example 101], half-maximal inhibition (IC50) required 37 nM. For the compound `CCOc1nccc(Sc2cnc(N3CCC4(CC3)CO[C@@H](C)[C@H]4N)n(C)c2=O)c1Cl` [Example 102], 10 nM corresponded to half-maximal inhibition (IC50). Under `C[C@@H]1OCC2(CCN(c3ncc(Sc4cccc(Cl)c4Cl)c(=O)n3C)CC2)[C@@H]1N` [Example 103] stands 15 nM. As to `Cn1c(N2CCC3(CC[C@@H]3N)CC2)ncc(Sc2cccc(Cl)c2Cl)c1=O` [Example 104], the IC50 worked out at 109 nM. This IC50 lies about 7.3-fold higher than the previous one. With `COc1nccc(Sc2cnc(N3CCC4(CC3)CO[C@@H](C)[C@H]4N)n(C)c2=O)c1Cl` [Example 105] the figure was 8 nM. Compound `COc1cccc(Sc2cnc(N3CCC4(CC3)CO[C@@H](C)[C@H]4N)n(C)c2=O)c1Cl` [Example 106] displayed an IC50 of 30 nM. Against the preceding compound, the IC50 is about 3.8-fold higher.

Compound `C[C@@H]1OCC2(CCN(c3ncc(Sc4ccnc(NC5CC5)c4Cl)c(=O)n3C)CC2)[C@@H]1N` [Example 107] showed a half-maximal inhibitory concentration (IC50) of 146 nM. On to `Cn1c(N2CCC(C)(CN)CC2)ncc(Sc2ccccc2C(F)(F)F)c1=O` [Example 108], for which the IC50 was found to be 500 nM. For `Cn1c(N2CCC3(CCC[C@H]3N)CC2)ncc(Sc2cccc(Cl)c2Cl)c1=O` [Example 109], the midpoint of inhibition, the IC50, lay at 26 nM. `C[C@H]1C[C@@H](N)C2(CCN(c3ncc(Sc4cc(N)ncc4Cl)c(=O)n3C)CC2)C1` [Example 110] registered an IC50 of 16 nM. `C[C@@H]1OCC2(CCN(c3ncc(Sc4cc(N)nc(Cl)c4Cl)c(=O)n3C)CC2)[C@@H]1N` [Example 112] showed a 50% inhibitory concentration (IC50) of 19 nM. With `C[C@@H]1OCC2(CCN(c3ncc(Sc4ccnc(N)c4Cl)c(=O)n3C)CC2)[C@@H]1N` [Example 113] the figure was 35 nM. Under `C[C@H]1C[C@@H](N)C2(CCN(c3ncc(Sc4cccnc4C(F)(F)F)c(=O)n3C)CC2)C1` [Example 114] stands 50 nM. Under `Cn1c(N2CCC(C)(CN)CC2)ncc(Sc2ccnc(Cl)c2Cl)c1=O` [Example 115] stands 83 nM; under `Cn1c(N2CCC(C)(CN)CC2)ccc(Sc2cccc(Cl)c2Cl)c1=O` [Example 116, 6-(4-(aminomethyl)-4-methylpiperidin-1-yl)-3-((2,3-dichlorophenyl)thio)-1-methylpyridin-2(1H)-one], 1620 nM. With `CC1(CN)CCN(c2ccc(Sc3cccc(Cl)c3Cl)c(=O)[nH]2)CC1` [Example 118, 6-(4-(aminomethyl)-4-methylpiperidin-1-yl)-3-((2,3-dichlorophenyl)thio)pyridin-2(1H)-one], the midpoint of inhibition, the IC50, lay at 108 nM. The compound `COc1nccc(Sc2ccc(N3CCC4(CC3)CO[C@@H](C)[C@H]4N)[nH]c2=O)c1Cl` [Example 119] yielded an IC50 of 83 nM. `C[C@@H]1OCC2(CCN(c3ccc(Sc4cccc(Cl)c4Cl)c(=O)[nH]3)CC2)[C@@H]1N` [Example 120] came in with a half-inhibitory concentration (IC50) of 15 nM.

Regarding `Cc1nc(N2CCC3(CC2)CO[C@@H](C)[C@H]3N)n(C)c(=O)c1Sc1ccnc(N)c1Cl` [Example 121, 5-((2-amino-3-chloropyridin-4-yl)thio)-2-((3S,4S)-4-amino-3-methyl-2-oxa-8-azaspiro[4.5]decan-8-yl)-3,6-dimethylpyrimidin-4(3H)-one], inhibition was half-maximal at 60 nM (IC50).

`Cc1nc(N2CCC3(CC2)CO[C@@H](C)[C@H]3N)n(C)c(=O)c1Sc1cccnc1C(F)(F)F` [Example 122] showed an IC50 of 68 nM. With `Cc1ccc(-c2c(N)nc(N3CCC4(CC3)CO[C@@H](C)[C@H]4N)n(C)c2=O)cc1Cl` [Example 123, 6-amino-2-((3S,4S)-4-amino-3-methyl-2-oxa-8-azaspiro[4.5]decan-8-yl)-5-(3-chloro-4-methylphenyl)-3-methylpyrimidin-4(3H)-one] the figure was 14 nM; with `Cc1ccc(-c2c(N)nc(N3CCC4(CC3)C[C@@H](C)C[C@H]4N)n(C)c2=O)cc1Cl` [Example 124], 10 nM. `C[C@H]1C[C@@H](N)C2(CCN(c3nc(N)c(-c4cccc(Cl)c4)c(=O)n3C)CC2)C1` [Example 125] yielded an IC50 of 12 nM. As for `C[C@H]1C[C@@H](N)C2(CCN(c3nc(N)c(-c4cccc(F)c4F)c(=O)n3C)CC2)C1` [Example 126], the midpoint of inhibition, the IC50, lay at 12 nM.

In the case of `C[C@H]1C[C@@H](N)C2(CCN(c3nc(N)c(-c4ccc(F)c(F)c4)c(=O)n3C)CC2)C1` [Example 127], it took 14 nM to reach half-maximal inhibition (IC50). Compound `C[C@H]1C[C@@H](N)C2(CCN(c3nc(N)c(-c4cccc(Cl)c4Cl)c(=O)n3C)CC2)C1` [Example 129] came in with an IC50 of 14 nM. With `C[C@@H]1OCC2(CCN(c3nc(N)c(-c4ccc(SC(F)(F)F)cc4)c(=O)n3C)CC2)[C@@H]1N` [Example 130] the figure was 14 nM; with `CC(C)c1ccc(-c2c(N)nc(N3CCC4(CC3)CO[C@@H](C)[C@H]4N)n(C)c2=O)cc1` [Example 131], 16 nM. Under `C[C@@H]1OCC2(CCN(c3nc(N)c(-c4cccc(Cl)c4Cl)c(=O)n3C)CC2)[C@@H]1N` [Example 132] stands 16 nM; under `C[C@@H]1OCC2(CCN(c3nc(N)c(-c4ccc(F)c(F)c4)c(=O)n3C)CC2)[C@@H]1N` [Example 133], 17 nM. `C[C@H]1C[C@@H](N)C2(CCN(c3nc(N)c(-c4ccc(SC(F)(F)F)cc4)c(=O)n3C)CC2)C1` [Example 134]: the IC50 is 19 nM. Under `C[C@@H]1OCC2(CCN(c3nc(N)c(-c4cccc(Cl)c4)c(=O)n3C)CC2)[C@@H]1N` [Example 135] stands 19 nM; under `C[C@@H]1OCC2(CCN(c3nc(N)c(-c4ccc(Cl)cc4)c(=O)n3C)CC2)[C@@H]1N` [Example 136], 20 nM; under `Cn1c(N2CCC3(CC2)CC(F)(F)C[C@H]3N)nc(N)c(-c2cccc(Cl)c2Cl)c1=O` [Example 137], 22 nM. In the case of `C[C@@H]1OCC2(CCN(c3nc(N)c(-c4ccccc4)c(=O)n3C)CC2)[C@@H]1N` [Example 138], the IC50 was 24 nM. The compound `C[C@@H]1OCC2(CCN(c3nc(N)c(-c4ccc(OC5CC5)cc4)c(=O)n3C)CC2)[C@@H]1N` [Example 139] came in with an IC50 of 25 nM. `C[C@H]1C[C@@H](N)C2(CCN(c3nc(N)c(-c4ccccc4)c(=O)n3C)CC2)C1` [Example 140] gave an IC50 of 25 nM. Under `C[C@@H]1OCC2(CCN(c3nc(N)c(-c4ccc(Cl)c(F)c4)c(=O)n3C)CC2)[C@@H]1N` [Example 141] stands 26 nM; under `C[C@@H]1OCC2(CCN(c3nc(N)c(-c4ccc(Oc5ccccc5)cc4)c(=O)n3C)CC2)[C@@H]1N` [Example 142], 27 nM; under `C[C@@H]1OCC2(CCN(c3nc(N)c(-c4cccc(F)c4F)c(=O)n3C)CC2)[C@@H]1N` [Example 143], 28 nM. The compound `CC[C@@H]1OCC2(CCN(c3nc(N)c(-c4ccccc4)c(=O)n3C)CC2)[C@@H]1N` [Example 144] displayed an IC50 of 34 nM. Take `C[C@@H]1OCC2(CCN(c3nc(N)c(-c4ccc(OC(F)F)cc4)c(=O)n3C)CC2)[C@@H]1N` [Example 145]: the IC50 was 34 nM. That is a double-digit nanomolar value. `C[C@@H]1OCC2(CCN(c3nc(N)c(-c4ccc(F)cc4)c(=O)n3C)CC2)[C@@H]1N` [Example 146] registered an IC50 of 38 nM. The IC50 values of the last two compounds are within 1.5-fold of each other. In turn, `C[C@@H]1OCC2(CCN(c3nc(N)c(-c4ccc(OCC5CC5)cc4)c(=O)n3C)CC2)[C@@H]1N` [Example 147] showed an IC50 of 39 nM. As to `Cn1c(N2CCC3(CC2)C[C@@H](C(F)(F)F)C[C@H]3N)nc(N)c(-c2cccc(Cl)c2Cl)c1=O` [Example 148], half-maximal inhibition (IC50) was put at 43 nM. `C[C@@H]1OCC2(CCN(c3nc(N)c(-c4ccc(OCc5ccccc5)cc4)c(=O)n3C)CC2)[C@@H]1N` [Example 149] registered an IC50 of 43 nM.

In the case of `Cn1c(N2CCC3(CC2)CC(F)(F)C[C@H]3N)nc(N)c(-c2ccccc2)c1=O` [Example 150], the IC50 was determined as 44 nM. Turning to `C[C@@H]1OCC2(CCN(c3nc(N)c(-c4cccc(F)c4)c(=O)n3C)CC2)[C@@H]1N` [Example 151], the IC50 turned out to be 44 nM. In other words, the double-digit nanomolar range.

Turning to `C[C@@H]1OCC2(CCN(c3nc(N)c(-c4ccccc4Cl)c(=O)n3C)CC2)[C@@H]1N` [Example 152], 45 nM corresponded to half-maximal inhibition (IC50).
